In patent US10638757B2, “Formulation systems for antimicrobial glycolipids” (IMD Natural Solutions GmbH, priority 2016, dated 2020):
Entries after “also recorded” stand apart in the source; their conditions may differ.

Columns and labels:
[1] = Visual control of compatibility (turbidity, particles, precipitate) of beverages containing mixture of antimicrobial glycolipids with or without formulation stabilizer
Procedure: All experiments done and reported in duplicate.
Portions of about 50 mL each for the two beverages, “Gerolstetner Orangenlimonade” (turbid orange lemonade, de-gassed; cloudy beverage) and “REWE Apfelsaft” (clear apple juice, sterile filtered; clear beverage), were mixed with aliquots of a mixture of antimicrobial glycolipids and alpha-cyclodextrin as to establish the depicted nine combinations of concentrations (4-2 to 4-4 and 4-6 to 4-11, respectively); two control solutions with neither adding a mixture of antimicrobial glycolipids nor alpha-cyclodextrin were run in parallel (4-1 and 4-5, respectively).
However, for the concentration of 10 μg/ml of mixture of antimicrobial glycolipids three combination with alpha-cyclodextrin, 25 (6-1, 6-2, 6-9, 6-10, 6-17, 6-18), 75 (6-3, 6-4, 6-11, 6-12, 6-19, 6-20) and 100 μg/ml (6-5, 6-6, 6-13, 6-14, 6-21, 6-22) and for the concentration of 25 μg/ml of mixture of antimicrobial glycolipids only 100 μg/ml alpha-cyclodextrin (6-7, 6-8, 6-15, 6-16, 6-23, 6-24) was used all with two test points, respectively.
2×50 mL portion of the four solutions in the Erlenmeyer flasks were poured into clear and sterile polystyrol conical tubes and sealed for investigation of stability and compatibility of such beverages at three different temperatures (6/20/40° C.) each, resulting in four tubes per temperature and beverage. Such 24 tubes were stored for seven days and observed at day 0, 3 and 7 by measurement of turbidity as well as by optical inspection. A control solution without adding any components was run in parallel.
Portions of about 50 mL each for the three beverages, “Gerolsteiner Orangenlimonade” (orange lemonade, de-gassed, cloudy beverage), “Kastell Zitronensprudel” (citrus lemonade, sterile filtered, clear beverage), and “REWE Apfelsaft” (clear apple juice, sterile filtered, clear beverage), were mixed with aliquots of a mixture of antimicrobial glycolipids as to establish the nine test solutions; three control solutions without adding a mixture of antimicrobial glycolipids were ran in parallel: […]

[2] = Comparison of alpha-cyclodextrin with Polysorbate 60: practicability in application in beverages and reliability in use; settings: compared with polysorbates
Source text: The preferred formulation stabilizers polysorbates and cyclodextrins have been further investigated towards their practicability in application in beverages as well as their reliability in use.

[3] = Screening of additives as formulation stabilizers in combination with a mixture of antimicrobial glycolipids in water based formulations (turbidity, qualitative overview)
Procedure: As to identify formulation stabilizer a screening was conducted in which additives typically used in food, cosmetic or medical applications were combined with a mixture of antimicrobial glycolipids in a water based formulation. A rather high concentration of 1000 mg/l for the formulation enhancing agents was used as to not miss potential effects whereas the mixture of antimicrobial glycolipids was applied in typical use concentrations, i.e. 5, 10 and 25 μg/ml.
Portions of about 50 mL each for two beverages. “Gerolsteiner Orangenlimonade” (turbid orange lemonade, de-gassed; cloudy beverage) and “REWE Apfelsaft” (clear apple juice, sterile filtered; clear beverage) as well as for 10 mM citrate buffer is water (pH 3.0), were mixed each with aliquots of a mixture of antimicrobial glycolipids and the respective additives as to establish for each individually screened additive three combinations of concentrations (1000 μg/ml (with few exceptions as listed below) additive with 5, 10 and 25 μg/ml mixture of antimicrobial glycolipids, respectively); three controls with neither adding a mixture of antimicrobial glycolipids nor additive were run in parallel.
The necessary aliquots of a mixture of antimicrobial glycolipids were transferred from an aqueous stock solution containing 1 mg/ml mixture of antimicrobial glycolipids into the nine test solutions prepared for each additive.
The necessary aliquots of additives were transferred directly into the 50 mL portions.
For measurement of the turbidity the turbidity infrared device AL250T-IR from […]® was used. It was measured at three time points: day 0, 3, 7. All test samples were stored and handled at room temperature.

[4] = Influence of the additives on the MIC of a mixture of antimicrobial glycolipids (qualitative); assay type: cell-based; settings: additive 1 mg/ml
Source text: In addition, the influence of the additives on the MIC of a mixture of antimicrobial glycolipids is described qualitatively.

[5] = additive 1 mg/ml, independent of glycolipid mixture

**Q.** Which results are given for `OC[C@H]1O[C@@H]2O[C@H]3[C@H](O)[C@@H](O)[C@@H](O[C@H]4[C@H](O)[C@@H](O)[C@@H](O[C@H]5[C@H](O)[C@@H](O)[C@@H](O[C@H]6[C@H](O)[C@@H](O)[C@@H](O[C@H]7[C@H](O)[C@@H](O)[C@@H](O[C@H]1[C@H](O)[C@H]2O)O[C@@H]7CO)O[C@@H]6CO)O[C@@H]5CO)O[C@@H]4CO)O[C@@H]3CO` [alpha-cyclodextrin]?
**A.** alpha-cyclodextrin concentration avoiding lack of compatibility ([1]; 10 μg/ml mixture of antimicrobial glycolipids in apple juice at 4° C.): 75 µg/mL; alpha-cyclodextrin concentration needed to avoid lack of compatibility ([1]; 10 μg/ml mixture of antimicrobial glycolipids in apple juice at 40° C.): 100 µg/mL; duration of improvement of compatibility ([1]; alpha-cyclodextrin with 10 μg/ml mixture of antimicrobial glycolipids, apple juice): > 28 days; overall rating as broadly applicable and reliable formulation stabilizer [2]: superior

**Q.** With “polyoxyethylene-(20)-sorbitane monolaurate [Polysorbate 20]” as the compound, how does the “Effect of additive itself on water based product” value (from here on “Effect of additive itself”) [3, 5] read?
**A.** Not compatible with apple juice.

**Q.** For Sorbitan monostearate, which “Effect of additive itself” value ([3]; additive 0.1 mg/ml) is on record?
**A.** Weakly soluble

**Q.** For `OC[C@H]1O[C@@H]2O[C@H]3[C@H](O)[C@@H](O)[C@@H](O[C@H]4[C@H](O)[C@@H](O)[C@@H](O[C@H]5[C@H](O)[C@@H](O)[C@@H](O[C@H]6[C@H](O)[C@@H](O)[C@@H](O[C@H]7[C@H](O)[C@@H](O)[C@@H](O[C@H]8[C@H](O)[C@@H](O)[C@@H](O[C@H]9[C@H](O)[C@@H](O)[C@@H](O[C@H]1[C@H](O)[C@H]2O)O[C@@H]9CO)O[C@@H]8CO)O[C@@H]7CO)O[C@@H]6CO)O[C@@H]5CO)O[C@@H]4CO)O[C@@H]3CO` [gamma cyclodextrin], which “beneficial effects as formulation stabilizer for antimicrobial glycolipids” value [1] is on record?
**A.** less pronounced beneficial effects

**Q.** With `O=C(O)CN(CCN(CC(=O)O)CC(=O)O)CC(=O)O` [EDTA] as the compound, how does the “Effect on MIC” value [4] read?
**A.** Impr.

**Q.** For “polyoxyethylene-(20)-sorbitane monooleate [Polysorbate 80]”, which “Effect of additive itself” value [3, 5] is on record?
**A.** Increase of turbidity; also recorded: Not compatible with apple juice

**Q.** With “polyoxyethylene-(20)-sorbitane monostearate [Polysorbate 60]” as the compound, how does the “Effect of additive itself” value [3, 5] read?
**A.** Not compatible with apple juice.
